Results taken from article PMC4594923, “Food Polyphenols Fail to Cause a Biologically Relevant Reduction of COX-2 Activity” (PLoS ONE, 2015).
Marks after values point to notes of the source that are not given here.

Legend:
[1] = test system: arachidonic acid (AA) cascade; assay: kidney tissue oxylipin/PG levels in LPS induced sepsis in mice; conditions: kidney tissue 24 h after LPS treatment, LPS +, mean;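 further: male C57BL/6N mice challenged with LPS, kidney taken 24 h later, oxylipins quantified by LC-MS after solid-phase extraction of tissue homogenate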
Description: (§1) Twelve week old male C57BL/6N mice (Charles River, Sulzfeld, Germany) were used for all experiments. C57BL/6 male mice (H2^b, 11–13 weeks of age) were obtained from Charles River (Sulzfeld, Germany). Animals were cared for in accordance with the institution’s guidelines for experimental animals and with the guidelines of the American Physiological Society. […] Mice were monitored closely and if they appeared compromised (i.e. inactivity, no intake of food or water) after compound or LPS injection the experiment was terminated.
(§2) Oxylipin levels were analyzed in plasma and tissues by LC-MS following SPE extraction of 200 μl plasma or tissue homogenate (50 mg) on Chromabond C18 ec cartridges (Machery-Nagel, Düren, Germany) [19].
(§3) GraphPad Prism 5.0 (GraphPad Software, San Diego, USA) was used for data analysis, the fitting of dose response curves and calculation of the IC50 values. Statistical differences were determined by Dunnetts test (LPS vs. other groups).

[2] = test system: arachidonic acid (AA) cascade; assay: plasma oxylipin/PG levels in LPS induced sepsis in mice; type: in vivo, C57BL/6N mice; conditions: plasma 24 h after LPS treatment; LPS +; mean;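 further: male C57BL/6N mice given LPS, plasma oxylipins quantified by LC-MS after solid-phase extraction, pretreatment or vehicle given intraperitoneally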
Description: as §1, §2, §3

SMILES: O=c1c(-c2ccc(O)cc2)coc2cc(O)cc(O)c12 [Genistein, genistein]
- 1a,1b-dihomo-PGF2α [1]: 1.9 nM
- 4,5-DiHDPE [1]: 15 nM
- 4-HDHA [1]: 28^† nM
- 5(6)-EpETrE [1]: 140^† nM
- 5,6-DiHETrE [1]: 1.8^† nM
- 5-HEPE [1]: 1.3 nM
- 5-HETE [1]: 15^† nM
- 5-oxo-ETE [1]: 45 nM
- 6-keto-PGF1α [1]: 61 nM
- 7,8-DiHDPE [1]: 2.0^* nM
- 7-HDHA [1]: 4.0^* nM
- 8(9)-EpETrE [1]: 34^‡ nM
- 8,9-DiHETrE [1]: 1.9 nM
- 8-HDHA [1]: 23^‡ nM
- 8-HETE [1]: 4.9 nM
- 8-iPF2a [1]: 2.0 nM
- 9(10)-EpODE [1]: 14 nM
- 9(10)-EpOME [1]: 170^* nM
- 9(10)-Epoxystearic acid [1]: 75^* nM
- 9,10,13-TriHOME [1]: 4.3 nM
- 9,10-DiHODE [1]: 1.6 nM
- 9,10-DiHOME [1]: 31 nM
- 9,10-Dihydroxystearic acid [1]: 50 nM
- 9,12,13-TriHOME [1]: 24 nM
- 9-HETE [1]: 4.3^† nM
- 9-HODE [1]: 280 nM
- 9-HOTrE [1]: 5.0 nM
- 9-oxo-ODE [1]: 65 nM
- 10(11)-EpDPE [1]: 71^† nM
- 10,11-DiHDPE [1]: 2.4 nM
- 10-HDHA [1]: 4.3 nM
- 11(12)-EpETE [1]: 4.0 nM
- 11(12)-EpETrE [1]: 82^† nM
- 11,12-DiHETrE [1]: 2.8 nM
- 11-HDHA [1]: 7.7^† nM
- 11-HETE [1]: 18 nM
- 12(13)-EpODE [1]: 8.1^* nM
- 12(13)-EpOME [1]: 120^* nM
- 12,13-DiHOME [1]: 78 nM
- 12-HEPE [1]: 2.2 nM
- 12-HETE [1]: 21 nM
- 13(14)-EpDPE [1]: 56^† nM
- 13,14-DiHDPE [1]: 5.0 nM
- 13,14-dihydro-15-keto-PGF2α [1]: 3.1 nM
- 13-HDHA [1]: 9.1^* nM
- 13-HODE [1]: 230 nM
- 13-HOTrE [1]: 6.0 nM
- 13-oxo-ODE [1]: 11 nM
- 14(15)-EpETE [1]: 4.7^† nM
- 14(15)-EpETrE [1]: 57^* nM
- 14,15-DiHETE [1]: 1.1 nM
- 14,15-DiHETrE [1]: 8.5 nM
- 14-HDHA [1]: 14 nM
- 15(16)-EpODE [1]: 56^† nM
- 15(S)-HETrE [1]: 6.4 nM
- 15,16-DiHODE [1]: 26 nM
- 15-HETE [1]: 31^* nM
- 15-oxo-ETE [1]: 12^* nM
- 16(17)-EpDPE [1]: 52^† nM
- 16,17-DiHDPE [1]: 15 nM
- 16-HDHA [1]: 9.1 nM
- 17(18)-EpETE [1]: 5.7^† nM
- 17,18-DiHETE [1]: 4.4 nM
- 17-HDHA [1]: 22 nM
- 18-HEPE [1]: 2.0^* nM
- 19(20)-EpDPE [1]: 88^† nM
- 19,20-DiHDPE [1]: 100 nM
- 20-HDHA [1]: 25^* nM
- 20-HEPE [1]: 5.9 nM
- EKODE [1]: 58 nM
- PGD2 [1]: 9.6 nM
- PGE1 [1]: 6.3 nM
- PGE2 [1]: 110 nM
- PGF1α [1]: 3.7 nM
- PGF2α [1]: 40 nM
- TXB2 [1]: 3.2^* nM
- 5,6-DiHETE ([1]; < = below LOQ): < 0.25 nM
- 5-iPF2α ([1]; < = below LOQ): < 1.0 nM
- 8(9)-EpETE ([1]; < = below LOQ): 2.8^† nM
- 12,13-DiHODE ([1]; < = below LOQ): < 2.0 nM
- 13,14-dihydro-15-keto-PGE1 ([1]; < = below LOQ): 0.5 nM
- 20-HETE ([1]; < = below LOQ): < 2.7 nM
- PGD1 ([1]; < = below LOQ): < 0.50 nM
- PGF2α ([1]; second listing of PGF2α (r9)): 40 nM
- 1a,1b-dihomo-PGF2α concentration in plasma [2]: 0.33 nM
- 4,5-DiHDPE concentration in plasma [2]: 10 nM
- 4-HDHA concentration in plasma [2]: 2.0 nM
- 5(6)-EpETrE concentration in plasma [2]: 8.9 nM
- 5,6-DiHETrE concentration in plasma [2]: 0.72 nM
- 5-HEPE concentration in plasma [2]: 0.33 nM
- 5-HETE concentration in plasma [2]: 3.1 nM
- 5-iPF2α concentration in plasma [2]: < 0.50 nM
- 5-oxo-ETE concentration in plasma [2]: 1.2 nM
- 6-keto-PGF1α concentration in plasma [2]: 2.4 nM
- 7,8-DiHDPE concentration in plasma [2]: 1.1 nM
- 7-HDHA concentration in plasma [2]: 0.64 nM
- 8(9)-EpETrE concentration in plasma [2]: 2.3 nM
- 8,9-DiHETrE concentration in plasma [2]: 2.1 nM
- 8-HDHA concentration in plasma [2]: 4.0 nM
- 8-HEPE concentration in plasma [2]: 0.72 nM
- 8-HETE concentration in plasma [2]: 9.6 nM
- 8-iPF2a concentration in plasma [2]: 0.24 nM
- 9(10)-EpODE concentration in plasma [2]: 3.5 nM
- 9(10)-EpOME concentration in plasma [2]: 37 nM
- 9(10)-Epoxystearic acid concentration in plasma [2]: 31 nM
- 9,10,13-TriHOME concentration in plasma [2]: 1.5 nM
- 9,10-DiHODE concentration in plasma [2]: 4.8 nM
- 9,10-DiHOME concentration in plasma [2]: 63 nM
- 9,10-Dihydroxystearic acid concentration in plasma [2]: 15 nM
- 9,12,13-TriHOME concentration in plasma [2]: 9.6 nM
- 9-HODE concentration in plasma [2]: 96 nM
- 9-HOTrE concentration in plasma [2]: 4.1 nM
- 9-oxo-ODE concentration in plasma [2]: 16 nM
- 10(11)-EpDPE concentration in plasma [2]: 3.0 nM
- 10,11-DiHDPE concentration in plasma [2]: 0.90 nM
- 10-HDHA concentration in plasma [2]: 16 nM
- 11(12)-EpETrE concentration in plasma [2]: 2.7 nM
- 11,12-DiHETE concentration in plasma [2]: 0.19 nM
- 11,12-DiHETrE concentration in plasma [2]: 1.9 nM
- 11-HDHA concentration in plasma [2]: 1.2 nM
- 11-HETE concentration in plasma [2]: 2.7 nM
- 12(13)-EpODE concentration in plasma [2]: 1.8 nM
- 12(13)-EpOME concentration in plasma [2]: 34 nM
- 12,13-DiHODE concentration in plasma [2]: 4.7 nM
- 12,13-DiHOME concentration in plasma [2]: 214 nM
- 12-HEPE concentration in plasma [2]: 140 nM
- 12-HETE concentration in plasma [2]: 1200 nM
- 13(14)-EpDPE concentration in plasma [2]: 2.0 nM
- 13,14-DiHDPE concentration in plasma [2]: 0.96 nM
- 13,14-dihydro-15-keto-PGE1 concentration in plasma [2]: 0.18 nM
- 13,14dihydro-15-keto-PGF2α concentration in plasma [2]: 0.43 nM
- 13-HDHA concentration in plasma [2]: 2.8 nM
- 13-HODE concentration in plasma [2]: 240 nM
- 13-HOTrE concentration in plasma [2]: 15 nM
- 13-oxo-ODE concentration in plasma [2]: 2.7 nM
- 14(15)-EpETE concentration in plasma [2]: 0.21 nM
- 14(15)-EpETrE concentration in plasma [2]: 2.0 nM
- 14,15-DiHETE concentration in plasma [2]: 0.41 nM
- 14,15-DiHETrE concentration in plasma [2]: 4.3 nM
- 14-HDHA concentration in plasma [2]: 450 nM
- 15(16)-EpODE concentration in plasma [2]: 2.0 nM
- 15(S)-HETrE concentration in plasma [2]: 2.7 nM
- 15,16-DiHODE concentration in plasma [2]: 40 nM
- 15-HEPE concentration in plasma [2]: 0.96 nM
- 15-HETE concentration in plasma [2]: 5.1 nM
- 15-oxo-ETE concentration in plasma [2]: 0.42 nM
- 16(17)-EpDPE concentration in plasma [2]: 2.1 nM
- 16,17-DiHDPE concentration in plasma [2]: 2.2 nM
- 16-HDHA concentration in plasma [2]: 1.9 nM
- 17(18)-EpETE concentration in plasma [2]: 1.2 nM
- 17,18-DiHETE concentration in plasma [2]: 2.3 nM
- 17-HDHA concentration in plasma [2]: 21 nM
- 18-HEPE concentration in plasma [2]: 0.45 nM
- 19(20)-EpDPE concentration in plasma [2]: 14 nM
- 19,20-DiHDPE concentration in plasma [2]: 19 nM
- 20-HDHA concentration in plasma [2]: 3.7 nM
- 20-HEPE concentration in plasma [2]: 2.8 nM
- 20-HETE concentration in plasma [2]: 1.7 nM
- EKODE concentration in plasma [2]: 9.9 nM
- PGD2 concentration in plasma [2]: < 0.50 nM
- PGE2 concentration in plasma [2]: 0.95 nM
- PGF1α concentration in plasma [2]: 0.13 nM
- PGF2α concentration in plasma [2]: 0.44 nM
- TXB2 concentration in plasma [2]: 2.6 nM
